ChEMBL document CHEMBL1201862, “PubChem BioAssay data set” (2004)
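Growth conditions: 96-well plates. Treatment: test compound, 48 hours, 5 concentrations. Analysis: linear interpolation between bracketing concentrations; unreached endpoints set to highest concentration. The concentration for 50% growth inhibition is given as GI50.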 Calls of active or inactive are those of the source. No stated cut-off is given here; in the data, active = GI50 up to about 1.1 µM and inactive = higher.

Tests used:
Test in all cases: NCI anticancer screen, dose series, 48 h
[1] = system: Malme-3M
[2] = system: M14
[3] = system: SK-MEL-2
[4] = system: SR
[5] = system: SNB-19
[6] = system: HCT-116
[7] = system: U-251
[8] = system: UACC-257
[9] = system: KM12
[10] = system: SF-268
[11] = system: TK-10
[12] = system: A549
[13] = system: OVCAR-5
[14] = system: OVCAR-3
[15] = system: SN12C
[16] = system: HCT-15
[17] = system: PC-3
[18] = system: MDA-MB-435
[19] = system: MDA-MB-231

SMILES	GI50 [1]	GI50 [2]	GI50 [3]	GI50 [4]	GI50 [5]	GI50 [6]	GI50 [7]	GI50 [8]	GI50 [9]	GI50 [10]	GI50 [11]	GI50 [12]	GI50 [13]	GI50 [14]	GI50 [15]	GI50 [16] [µM]	GI50 [17]	GI50 [18]	GI50 [19]
COc1ccc2c(c1)CC1c3c(ccc(OC)c3O)CC2N1C (centres undefined)	15.7 µM (inactive)	16.5 µM (inactive)	19.2 µM (inactive)	15.3 µM (inactive)	47.6 µM (inactive)	19.6 µM (inactive)	25.1 µM (inactive)	23.1 µM (inactive)	28.2 µM (inactive)	54.2 µM (inactive)	64.4 µM (inactive)	57.3 µM (inactive)	54.5 µM (inactive)	29.2 µM (inactive)	43 µM (inactive)	34.4			
CCN1C(=O)/C(=C/Nc2ccccc2)S/C1=N/Nc1nc(-c2ccc(O)c(O)c2)cs1	6.19 µM (inactive)	5.61 µM (inactive)	4.31 µM (inactive)	2.7 µM (inactive)	4.66 µM (inactive)	8.63 µM (inactive)	6.56 µM (inactive)	6.44 µM (inactive)	5.01 µM (inactive)	23.4 µM (inactive)	38.5 µM (inactive)	33.7 µM (inactive)	> 100 µM (inactive)	5.69 µM (inactive)	4.24 µM (inactive)	7.76	33.9 µM (inactive)	1.71 µM (inactive)	6.65 µM (inactive)
CN(CC#N)C1CCCC[C@H]1O (some centres undefined)	> 100 µM (inactive)	> 100 µM (inactive)	> 100 µM (inactive)	46.6 µM (inactive)	> 100 µM (inactive)	> 100 µM (inactive)	> 100 µM (inactive)	> 100 µM (inactive)	> 100 µM (inactive)	> 100 µM (inactive)	> 100 µM (inactive)	> 100 µM (inactive)	> 100 µM (inactive)	> 100 µM (inactive)	> 100 µM (inactive)	> 100			
CC1=C(CO)C(=O)OC(C(C)C2CCC3C4CC5OC56C(O)C(N5CC5)=CC(=O)C6(C)C4CCC23C)C1 (centres undefined)	12.6 µM (inactive)	12.1 µM (inactive)	5.73 µM (inactive)	2.77 µM (inactive)	2.04 µM (inactive)	3.02 µM (inactive)	4.22 µM (inactive)	11.9 µM (inactive)	2.02 µM (inactive)	3.81 µM (inactive)	10.1 µM (inactive)	10.4 µM (inactive)	17.4 µM (inactive)	3.43 µM (inactive)	6.58 µM (inactive)	3.46			
CCOC(=O)CC(=O)ON(C)C(C)=O	> 100 µM (inactive)	> 100 µM (inactive)	> 100 µM (inactive)	> 100 µM (inactive)	> 100 µM (inactive)	> 100 µM (inactive)	> 100 µM (inactive)	> 100 µM (inactive)	> 100 µM (inactive)	> 100 µM (inactive)	> 100 µM (inactive)	> 100 µM (inactive)	> 100 µM (inactive)	> 100 µM (inactive)	> 100 µM (inactive)	> 100			
O=C1NCCCNCCCNCCCNC(=O)c2cccc1n2	> 100 µM (inactive)	> 100 µM (inactive)	63.2 µM (inactive)	> 100 µM (inactive)	> 100 µM (inactive)	> 100 µM (inactive)	> 100 µM (inactive)	> 100 µM (inactive)	> 100 µM (inactive)	> 100 µM (inactive)	> 100 µM (inactive)	> 100 µM (inactive)	> 100 µM (inactive)	> 100 µM (inactive)	> 100 µM (inactive)	> 100	> 100 µM (inactive)	> 100 µM (inactive)	> 100 µM (inactive)
CN(C)c1ccc(/C=c2\sc3nnc(Cc4ccccc4)n3c2=O)cc1	> 10 µM (inactive)	> 10 µM (inactive)	> 10 µM (inactive)	> 10 µM (inactive)	> 10 µM (inactive)	17.1 µM (inactive)	> 10 µM (inactive)	> 10 µM (inactive)	> 10 µM (inactive)	28.3 µM (inactive)	> 10 µM (inactive)	37 µM (inactive)	> 10 µM (inactive)	> 10 µM (inactive)	> 10 µM (inactive)	20.2			
O=C(Oc1ccc(Cl)cc1[N+](=O)[O-])c1ccccc1	> 100 µM (inactive)	> 100 µM (inactive)	> 100 µM (inactive)	> 100 µM (inactive)	> 100 µM (inactive)	> 100 µM (inactive)	38.5 µM (inactive)	> 100 µM (inactive)	> 100 µM (inactive)	> 100 µM (inactive)	> 100 µM (inactive)	> 100 µM (inactive)	57.1 µM (inactive)	69.5 µM (inactive)	> 100 µM (inactive)	> 100			
CCOc1ccc2nc(NC(=O)c3c/c(=N\NC(=O)C[N+](C)(C)C)c4ccc(O)cc4o3)sc2c1	1.28 µM (inactive)	1.63 µM (inactive)	2.43 µM (inactive)	3.05 µM (inactive)	5.65 µM (inactive)	3.4 µM (inactive)	2.89 µM (inactive)	1.49 µM (inactive)	5.28 µM (inactive)	3.29 µM (inactive)	21.7 µM (inactive)	2.76 µM (inactive)	3.37 µM (inactive)	0.13 µM (active)	3.55 µM (inactive)	5.93			
CC(C)N(C(=O)c1cccc(C(=O)N(C(C)C)C(C)C)c1)C(C)C	> 100 µM (inactive)	> 100 µM (inactive)	> 100 µM (inactive)	20.1 µM (inactive)	> 100 µM (inactive)	> 100 µM (inactive)	> 100 µM (inactive)	> 100 µM (inactive)	> 100 µM (inactive)	> 100 µM (inactive)	> 100 µM (inactive)	> 100 µM (inactive)	> 100 µM (inactive)	> 100 µM (inactive)	> 100 µM (inactive)	> 100			
C/C(=N\Nc1nc2ccccc2s1)c1cccnn1		3.05 µM (inactive)	3.05 µM (inactive)	0.476 µM (active)	8.2 µM (inactive)	2.05 µM (inactive)	3.68 µM (inactive)	2.48 µM (inactive)	2.77 µM (inactive)	1.56 µM (inactive)		2.23 µM (inactive)	4.02 µM (inactive)	0.406 µM (active)	2.42 µM (inactive)	0.333	1.79 µM (inactive)	4.26 µM (inactive)	2.28 µM (inactive)
CC[C@H](C)[C@H]1NC(=O)C(C(C)=O)=C1O	> 100 µM (inactive)	> 100 µM (inactive)	95.3 µM (inactive)	58.3 µM (inactive)	78.3 µM (inactive)	51.9 µM (inactive)	52.7 µM (inactive)	51.6 µM (inactive)	96.4 µM (inactive)	55.2 µM (inactive)	> 100 µM (inactive)	> 100 µM (inactive)	> 100 µM (inactive)	72.9 µM (inactive)	83.6 µM (inactive)	79.8			
COC(=O)C1=C(C(=O)OC)C2(OC(C)=O)c3ccccc3-c3ccccc3C12 (centres undefined)	2.25 µM (inactive)	4.79 µM (inactive)	14.5 µM (inactive)	2.33 µM (inactive)	> 40.7 µM (inactive)	3.66 µM (inactive)	7.87 µM (inactive)	5.96 µM (inactive)	12.5 µM (inactive)	7.62 µM (inactive)	3.6 µM (inactive)	17.3 µM (inactive)	14.2 µM (inactive)	5.53 µM (inactive)	4.89 µM (inactive)	5.26			
CC(C)Cc1ccc(C(C)/C=C2\CCC(CN3CCCC3)C2=O)cc1 (centres undefined)	20.4 µM (inactive)	13.8 µM (inactive)	17.7 µM (inactive)	1.76 µM (inactive)	12.4 µM (inactive)	4.13 µM (inactive)	5.87 µM (inactive)	16.7 µM (inactive)	2.77 µM (inactive)	3.98 µM (inactive)	3.69 µM (inactive)	18.3 µM (inactive)	21.8 µM (inactive)	3.69 µM (inactive)	3.97 µM (inactive)	4.06			
N=C(N)NS(=O)(=O)c1ccc(NCCc2c3ccccc3nc3ccccc23)cc1	> 100 µM (inactive)	> 100 µM (inactive)	> 100 µM (inactive)	33.9 µM (inactive)	> 100 µM (inactive)	41.9 µM (inactive)	> 100 µM (inactive)	52.5 µM (inactive)	> 100 µM (inactive)	> 100 µM (inactive)	> 100 µM (inactive)	> 100 µM (inactive)	> 100 µM (inactive)	> 100 µM (inactive)	> 100 µM (inactive)	> 100			
COc1ccc(C2Oc3cc(OC)c(OC)cc3C2CCl)cc1OC (centres undefined)	> 100 µM (inactive)	> 100 µM (inactive)	> 100 µM (inactive)	> 100 µM (inactive)	> 100 µM (inactive)	> 100 µM (inactive)	> 100 µM (inactive)	> 100 µM (inactive)	> 100 µM (inactive)	> 100 µM (inactive)	> 100 µM (inactive)	> 100 µM (inactive)	> 100 µM (inactive)	> 100 µM (inactive)	> 100 µM (inactive)	> 100			
N#Cc1cccc(/C=N/N/C(N)=N/O)c1	85.1 µM (inactive)	41.4 µM (inactive)	72.6 µM (inactive)	48.1 µM (inactive)	> 100 µM (inactive)	> 100 µM (inactive)	59.6 µM (inactive)	> 100 µM (inactive)	52.7 µM (inactive)	26.3 µM (inactive)	37.6 µM (inactive)	24.9 µM (inactive)	> 100 µM (inactive)	> 100 µM (inactive)	99.8 µM (inactive)	68.5			
